Measurements from ChEMBL document CHEMBL1201862, “PubChem BioAssay data set” (2004).
Calls of active or inactive are those of the source. Rule as the data show it, for most assays here: actives have a measured AC50 and inactives only a lower limit.

Key:
Caspase-6 = target: T1, Caspase-6 (Homo sapiens, UniProt P55212); assay: inhibition of CASP6 peptide cleavage – biochemical, VEID-R110 fluorescence, cherry-pick, dose response (AID 720632)
T1 sequence (P55212 whole entry): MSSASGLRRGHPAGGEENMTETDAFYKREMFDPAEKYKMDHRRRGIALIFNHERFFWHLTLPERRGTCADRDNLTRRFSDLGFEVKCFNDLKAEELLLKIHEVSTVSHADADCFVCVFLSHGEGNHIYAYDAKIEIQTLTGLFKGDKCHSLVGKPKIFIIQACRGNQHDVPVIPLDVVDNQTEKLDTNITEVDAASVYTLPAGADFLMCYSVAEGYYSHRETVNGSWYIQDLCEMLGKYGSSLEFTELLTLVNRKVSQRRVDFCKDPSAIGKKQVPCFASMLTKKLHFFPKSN

[1] = target: T2, Tyrosyl-DNA phosphodiesterase 2 (Homo sapiens, UniProt O95551); assay: potency against TDP2 phosphodiesterase activity – biochemical, epi absorbance, IC50, dose response (AID 743297)
T2 sequence (O95551 whole entry): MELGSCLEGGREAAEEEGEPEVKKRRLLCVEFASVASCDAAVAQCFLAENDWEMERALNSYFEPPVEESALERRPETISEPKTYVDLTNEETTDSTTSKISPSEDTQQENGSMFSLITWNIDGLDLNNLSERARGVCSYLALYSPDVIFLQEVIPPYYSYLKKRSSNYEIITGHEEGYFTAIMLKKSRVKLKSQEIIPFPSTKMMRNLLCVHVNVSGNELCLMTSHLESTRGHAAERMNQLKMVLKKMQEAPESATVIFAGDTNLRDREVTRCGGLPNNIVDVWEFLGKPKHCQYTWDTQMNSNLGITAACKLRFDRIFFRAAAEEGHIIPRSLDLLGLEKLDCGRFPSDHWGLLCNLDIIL

[2] = target: T3, Histone-lysine N-methyltransferase NSD2 (Homo sapiens, UniProt O96028); assay type: biochemical
T3 sequence (O96028 whole entry): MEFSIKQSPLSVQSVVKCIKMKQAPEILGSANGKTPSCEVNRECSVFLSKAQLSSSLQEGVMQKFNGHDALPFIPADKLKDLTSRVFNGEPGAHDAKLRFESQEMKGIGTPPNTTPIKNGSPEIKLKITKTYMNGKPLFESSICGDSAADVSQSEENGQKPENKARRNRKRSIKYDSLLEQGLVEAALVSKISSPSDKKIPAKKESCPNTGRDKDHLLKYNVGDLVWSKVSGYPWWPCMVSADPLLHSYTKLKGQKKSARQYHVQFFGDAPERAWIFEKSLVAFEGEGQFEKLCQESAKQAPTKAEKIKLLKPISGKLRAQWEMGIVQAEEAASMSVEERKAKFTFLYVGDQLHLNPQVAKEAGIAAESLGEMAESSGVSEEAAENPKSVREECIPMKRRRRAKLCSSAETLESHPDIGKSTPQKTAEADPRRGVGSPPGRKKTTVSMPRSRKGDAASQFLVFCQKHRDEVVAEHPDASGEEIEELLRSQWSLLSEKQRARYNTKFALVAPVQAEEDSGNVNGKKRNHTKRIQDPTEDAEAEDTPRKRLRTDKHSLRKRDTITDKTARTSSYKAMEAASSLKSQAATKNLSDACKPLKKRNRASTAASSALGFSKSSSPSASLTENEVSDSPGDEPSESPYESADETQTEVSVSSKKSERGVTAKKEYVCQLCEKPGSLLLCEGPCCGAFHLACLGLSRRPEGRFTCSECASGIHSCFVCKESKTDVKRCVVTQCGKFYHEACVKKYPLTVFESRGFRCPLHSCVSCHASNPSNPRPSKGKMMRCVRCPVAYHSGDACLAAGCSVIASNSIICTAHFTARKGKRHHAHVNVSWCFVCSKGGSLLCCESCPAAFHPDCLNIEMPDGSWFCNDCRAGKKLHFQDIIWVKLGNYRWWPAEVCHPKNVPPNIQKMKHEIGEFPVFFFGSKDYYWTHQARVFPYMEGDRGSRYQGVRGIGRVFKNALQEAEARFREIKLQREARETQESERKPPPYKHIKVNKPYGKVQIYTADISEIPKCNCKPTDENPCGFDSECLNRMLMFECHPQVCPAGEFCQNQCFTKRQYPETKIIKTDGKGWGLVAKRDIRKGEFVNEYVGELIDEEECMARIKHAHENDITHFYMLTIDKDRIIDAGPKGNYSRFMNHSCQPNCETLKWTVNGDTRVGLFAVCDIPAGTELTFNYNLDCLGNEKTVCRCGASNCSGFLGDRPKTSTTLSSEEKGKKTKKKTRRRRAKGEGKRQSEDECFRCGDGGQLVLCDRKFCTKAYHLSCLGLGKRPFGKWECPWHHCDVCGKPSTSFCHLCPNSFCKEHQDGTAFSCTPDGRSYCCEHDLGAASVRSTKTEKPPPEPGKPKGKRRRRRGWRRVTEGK

[3] = viability loss in HEK293 cells – cell-based, plate reader, cherry-picked samples, cytotoxicity control, dose response (AID 743446); assay type: functional
Cytochrome P450 1A2 = target: T4, Cytochrome P450 1A2 (Homo sapiens, UniProt P05177);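 also: PubChem cytochrome P450 panel assay, CYP1A2 panel member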
T4 sequence (P05177 whole entry): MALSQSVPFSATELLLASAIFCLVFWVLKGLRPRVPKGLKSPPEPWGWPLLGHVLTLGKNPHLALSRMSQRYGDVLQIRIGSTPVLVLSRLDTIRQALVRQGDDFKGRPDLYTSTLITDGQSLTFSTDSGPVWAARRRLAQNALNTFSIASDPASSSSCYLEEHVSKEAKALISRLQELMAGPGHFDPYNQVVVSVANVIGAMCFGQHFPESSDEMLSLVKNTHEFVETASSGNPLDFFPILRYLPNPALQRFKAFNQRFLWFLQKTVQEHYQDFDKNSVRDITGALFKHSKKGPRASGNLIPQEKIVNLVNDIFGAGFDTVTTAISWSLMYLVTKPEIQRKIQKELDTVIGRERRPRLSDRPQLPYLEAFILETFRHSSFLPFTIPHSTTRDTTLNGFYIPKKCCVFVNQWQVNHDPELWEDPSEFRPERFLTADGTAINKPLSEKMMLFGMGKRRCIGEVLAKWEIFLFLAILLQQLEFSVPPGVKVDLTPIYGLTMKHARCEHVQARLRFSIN

[4] = A549 cell cytotoxicity, dose response, cytotoxicity control, plate reader, cherry-pick, antagonist series (AID 743412); assay type: functional, cell-based
[5] = toxicity toward HepG2 liver cells – cell-based, plate reader, cherry-pick, antagonist series, cytotoxicity control, dose response (AID 743416); assay type: functional
Protein RecA = target: T5, Protein RecA (Mycobacterium tuberculosis, UniProt P9WHJ3); assay: Fluorescence Cell-Free Homogeneous Dose Retest to Identify Inhibitors of RecA-Intein Splicing Activity. [Related pubchem assays (depositor defined):AID2097, AID2223, AID489010, AID492950]; assay type: functional
T5 sequence (P9WHJ3 whole entry): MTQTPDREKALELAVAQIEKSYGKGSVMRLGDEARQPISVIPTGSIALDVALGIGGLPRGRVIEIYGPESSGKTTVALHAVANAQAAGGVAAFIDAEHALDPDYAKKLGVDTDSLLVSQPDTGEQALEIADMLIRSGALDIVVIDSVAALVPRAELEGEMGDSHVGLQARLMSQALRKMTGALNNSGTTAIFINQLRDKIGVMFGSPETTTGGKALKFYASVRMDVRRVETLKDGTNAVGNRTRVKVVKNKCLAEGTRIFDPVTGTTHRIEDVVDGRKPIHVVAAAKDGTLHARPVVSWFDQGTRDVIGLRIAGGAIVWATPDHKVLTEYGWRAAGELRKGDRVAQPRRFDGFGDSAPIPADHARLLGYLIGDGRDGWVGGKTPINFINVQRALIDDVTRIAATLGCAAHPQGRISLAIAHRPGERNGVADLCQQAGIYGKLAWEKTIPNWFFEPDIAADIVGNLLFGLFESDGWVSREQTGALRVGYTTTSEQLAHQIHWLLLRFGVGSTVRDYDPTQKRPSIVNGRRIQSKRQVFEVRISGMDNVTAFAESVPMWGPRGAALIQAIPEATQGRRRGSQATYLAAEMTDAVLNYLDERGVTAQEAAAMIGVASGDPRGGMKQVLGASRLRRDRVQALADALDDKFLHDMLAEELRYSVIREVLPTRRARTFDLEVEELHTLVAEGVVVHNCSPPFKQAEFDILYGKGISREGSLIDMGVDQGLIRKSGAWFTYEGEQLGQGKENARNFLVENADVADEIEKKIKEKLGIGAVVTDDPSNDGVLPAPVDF

[6] = target: T6, Replicative DNA helicase DnaB (Mycobacterium tuberculosis, UniProt P9WMR3); assay: DnaB intein splicing inhibitors, dose response, biochemical, cell-free fluorescence (AID 449749); assay type: functional
T6 sequence (P9WMR3 whole entry): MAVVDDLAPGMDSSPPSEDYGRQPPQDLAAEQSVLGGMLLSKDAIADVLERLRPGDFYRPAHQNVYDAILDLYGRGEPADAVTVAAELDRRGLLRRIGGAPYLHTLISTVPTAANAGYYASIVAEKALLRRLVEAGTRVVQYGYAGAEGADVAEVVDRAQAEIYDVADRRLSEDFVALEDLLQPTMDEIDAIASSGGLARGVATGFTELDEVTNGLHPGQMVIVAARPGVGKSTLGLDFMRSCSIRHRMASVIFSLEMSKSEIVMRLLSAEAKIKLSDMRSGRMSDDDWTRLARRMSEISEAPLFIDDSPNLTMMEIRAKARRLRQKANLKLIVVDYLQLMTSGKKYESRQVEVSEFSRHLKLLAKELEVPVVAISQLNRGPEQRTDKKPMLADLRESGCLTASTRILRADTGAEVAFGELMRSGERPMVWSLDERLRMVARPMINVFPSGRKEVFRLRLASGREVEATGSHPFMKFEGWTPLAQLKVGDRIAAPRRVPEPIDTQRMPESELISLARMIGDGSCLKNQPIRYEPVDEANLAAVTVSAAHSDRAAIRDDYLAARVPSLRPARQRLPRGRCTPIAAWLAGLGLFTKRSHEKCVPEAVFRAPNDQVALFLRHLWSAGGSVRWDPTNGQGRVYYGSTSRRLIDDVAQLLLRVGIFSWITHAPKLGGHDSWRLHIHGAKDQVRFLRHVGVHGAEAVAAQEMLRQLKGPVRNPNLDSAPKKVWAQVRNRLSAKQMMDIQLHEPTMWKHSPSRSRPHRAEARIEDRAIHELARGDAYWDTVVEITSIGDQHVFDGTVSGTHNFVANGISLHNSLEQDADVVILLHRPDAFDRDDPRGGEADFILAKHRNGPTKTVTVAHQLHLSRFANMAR

Compound | AC50 (Caspase-6) | IC50 [1] | AC50 [2] | AC50 [3] | AC50 (Cytochrome P450 1A2) | AC50 [4] | AC50 [5] | EC50 (Protein RecA) | AC50 [6]
Cc1cnc(C2OCCO2)c2cccc(N)c12 | 26.2 µM (active) | > 129 µM (inactive) | 18.5 µM (active) | – | – | – | – | – | –
Cc1cccc(Cn2ncc(Cl)c(Cl)c2=O)c1 | – | – | – | 17.4 µM (active) | 22.4 µM (inconclusive) | 30 µM (active) | 37.3 µM (active) | 6.04 µM (active) | 27.5 µM (active)
